# From patent publication US20060083830A1, “Polylysine-containing food additive and acidic adjuvant” (priority 2004, published 2006)
# Values joined by “and” are separate entries in the source; they are usually repeats but may differ in a detail not shown here. Equal values may be shown once.
# Test system: Listeria monocytogenes
# Assay: L. monocytogenes on cooked ground turkey balls blended with ε-polylysine, vacuum packaged, stored at 10° C., CFU determination
# Format: cell-based
# Settings: for Log Reduction: vs control Group A
# Protocol: Six groups of 20 g ground uncooked turkey balls were prepared, with 27 balls prepared per group. […] Groups B-F were blended with varying amounts of ε-polylysine (“ε-PL”). Final concentrations of ε-polylysine within the turkey balls were:
# After preparation, all meatballs were placed on baking sheets and baked in a conventional oven at 350° F. for 20 minutes. After baking, the meatballs were packaged separately and stored at 4° C.
# The mixture was further diluted 1:10,000 times with sterile saline to produce a suspension for use.
# 20 microliters of the Listeria monocytogenes suspension was inoculated onto the exterior of each turkey ball. Turkey balls were incubated at room temperature for 30 min post-inoculation to allow bacteria to attach. Turkey balls were individually vacuum packaged and stored at 10° C.
# The microbiological assay was performed after 3 hours, 24 hours, 1 week, 2 weeks, 3 weeks, 4 weeks, 5 weeks, 7 weeks, and 8 weeks. After each designated time period had passed, three bags from each group of meat balls were unpacked, transferred to a stomacher bag along with 20 ml of sterile 0.1% peptone water. Each meatball was hand crushed and stomached at high speed for 2 minutes. […] The letter “{overscore (A)}” denotes average.
substance,measurement,setting,value
"poly(imino(2-amino-1-oxo-1,6-hexanediyl)) [ε-PL]",CFU/g,"1000 ppm ε-PL, after 1 week",5.35E+06 CFU/g and 3.75E+06 CFU/g and 4.05E+06 CFU/g
same,average Log Value,"1000 ppm ε-PL, after 1 week",6.64
same,average of CFU/g,"1000 ppm ε-PL, after 1 week",4.38E+06 CFU/g
same,Log Reduction,"1000 ppm ε-PL, after 1 week",1.64
same,average Log Value,"1000 ppm ε-PL, after 2 weeks",7.61
same,average of CFU/g,"1000 ppm ε-PL, after 2 weeks",4.09E+07 CFU/g
same,Log Reduction,"1000 ppm ε-PL, after 2 weeks",0.68
same,average Log Value,"1000 ppm ε-PL, after 3 weeks",6.73
same,average of CFU/g,"1000 ppm ε-PL, after 3 weeks",5.24E+06 CFU/g
same,Log Reduction,"1000 ppm ε-PL, after 3 weeks",1.66
same,average Log Value,"1000 ppm ε-PL, after 4 weeks",7.73
same,average of CFU/g,"1000 ppm ε-PL, after 4 weeks",5.42E+07 CFU/g
same,Log Reduction,"1000 ppm ε-PL, after 4 weeks",0.74
same,average Log Value,"1000 ppm ε-PL, after 5 weeks",7.98
same,average of CFU/g,"1000 ppm ε-PL, after 5 weeks",9.64E+07 CFU/g
same,Log Reduction,"1000 ppm ε-PL, after 5 weeks",0.44
same,average Log Value,"1000 ppm ε-PL, after 7 weeks",7.80
same,average of CFU/g,"1000 ppm ε-PL, after 7 weeks",6.33E+07 CFU/g
same,Log Reduction,"1000 ppm ε-PL, after 7 weeks",0.62
same,average Log Value,"1000 ppm ε-PL, after 8 weeks",7.66
same,average of CFU/g,"1000 ppm ε-PL, after 8 weeks",4.53E+07 CFU/g
same,Log Reduction,"1000 ppm ε-PL, after 8 weeks",0.68
same,CFU/g,"1000 ppm ε-PL, after 3 hours",2.34E+02 CFU/g and 1.54E+02 CFU/g and 1.56E+02 CFU/g
same,average Log Value,"1000 ppm ε-PL, after 3 hours",2.26
same,average of CFU/g,"1000 ppm ε-PL, after 3 hours",1.81E+02 CFU/g
same,Log Reduction,"1000 ppm ε-PL, after 3 hours",0.53
same,average Log Value,"1000 ppm ε-PL, after 24 hours",3.25
same,average of CFU/g,"1000 ppm ε-PL, after 24 hours",1.77E+03 CFU/g
same,Log Reduction,"1000 ppm ε-PL, after 24 hours",>0.48
same,average Log Value,"2000 ppm ε-PL, after 1 week",4.74
same,average of CFU/g,"2000 ppm ε-PL, after 1 week",5.50E+04 CFU/g
same,Log Reduction,"2000 ppm ε-PL, after 1 week",3.54
same,average Log Value,"2000 ppm ε-PL, after 2 weeks",4.98
same,average of CFU/g,"2000 ppm ε-PL, after 2 weeks",9.57E+04 CFU/g
same,Log Reduction,"2000 ppm ε-PL, after 2 weeks",3.31
same,average Log Value,"2000 ppm ε-PL, after 3 weeks",4.68
same,average of CFU/g,"2000 ppm ε-PL, after 3 weeks",4.73E+04 CFU/g
same,Log Reduction,"2000 ppm ε-PL, after 3 weeks",3.72
same,average Log Value,"2000 ppm ε-PL, after 4 weeks",>6.44
same,average of CFU/g,"2000 ppm ε-PL, after 4 weeks",>2.76E+06 CFU/g
same,Log Reduction,"2000 ppm ε-PL, after 4 weeks",<2.03
same,average Log Value,"2000 ppm ε-PL, after 5 weeks",5.90
same,average of CFU/g,"2000 ppm ε-PL, after 5 weeks",7.91E+05 CFU/g
same,Log Reduction,"2000 ppm ε-PL, after 5 weeks",2.53
same,average Log Value,"2000 ppm ε-PL, after 7 weeks",6.66
same,average of CFU/g,"2000 ppm ε-PL, after 7 weeks",4.53E+06 CFU/g
same,Log Reduction,"2000 ppm ε-PL, after 7 weeks",1.77
same,average Log Value,"2000 ppm ε-PL, after 8 weeks",6.19
same,average of CFU/g,"2000 ppm ε-PL, after 8 weeks",1.54E+06 CFU/g
same,Log Reduction,"2000 ppm ε-PL, after 8 weeks",2.15
same,CFU/g,"2000 ppm ε-PL, after 3 hours",1.94E+02 CFU/g and 1.96E+02 CFU/g and 1.50E+02 CFU/g
same,average Log Value,"2000 ppm ε-PL, after 3 hours",2.26
same,average of CFU/g,"2000 ppm ε-PL, after 3 hours",1.80E+02 CFU/g
same,Log Reduction,"2000 ppm ε-PL, after 3 hours",0.53
same,CFU/g,"2000 ppm ε-PL, after 24 hours",1.98E+02 CFU/g and 2.64E+02 CFU/g and 2.14E+02 CFU/g
same,average Log Value,"2000 ppm ε-PL, after 24 hours",2.35
same,average of CFU/g,"2000 ppm ε-PL, after 24 hours",2.25E+02 CFU/g
same,Log Reduction,"2000 ppm ε-PL, after 24 hours",>1.37
same,post-lethality effect,3000 ppm,> 1 log
same,average Log Value,"3000 ppm ε-PL, after 1 week",1.00
same,average of CFU/g,"3000 ppm ε-PL, after 1 week",1.00E+01 CFU/g
same,Log Reduction,"3000 ppm ε-PL, after 1 week",7.28
same,average Log Value,"3000 ppm ε-PL, after 2 weeks",1.44
same,average of CFU/g,"3000 ppm ε-PL, after 2 weeks",2.73E+01 CFU/g
same,Log Reduction,"3000 ppm ε-PL, after 2 weeks",6.85
same,average Log Value,"3000 ppm ε-PL, after 3 weeks",<1.67
same,average of CFU/g,"3000 ppm ε-PL, after 3 weeks",<4.67E+01 CFU/g
same,Log Reduction,"3000 ppm ε-PL, after 3 weeks",>6.72
same,average Log Value,"3000 ppm ε-PL, after 4 weeks",<0.43
same,average of CFU/g,"3000 ppm ε-PL, after 4 weeks",<2.67E+00 CFU/g
same,Log Reduction,"3000 ppm ε-PL, after 4 weeks",>8.05
same,CFU/g,"3000 ppm ε-PL, after 5 weeks",<2.00E+00 CFU/g
same,average Log Value,"3000 ppm ε-PL, after 5 weeks",<0.30
same,average of CFU/g,"3000 ppm ε-PL, after 5 weeks",<2.00E+00 CFU/g
same,Log Reduction,"3000 ppm ε-PL, after 5 weeks",>8.12
same,average Log Value,"3000 ppm ε-PL, after 7 weeks",<1.08
same,average of CFU/g,"3000 ppm ε-PL, after 7 weeks",<1.20E+01 CFU/g
